Source: patent US12528805B2, “Solid forms of emetine” (Acer Therapeutics, Inc., priority 2020, dated 2026)
Where a name gives a salt, the structure may show the parent alone.

Legend:
[1] = Thermodynamic solubility study (HPLC of mother liquors); assay type: physicochemical; settings: thermodynamic from solid
Experimental: To obtain accurate solubility and residual solid form data for amorphous Compound I dihydrochloride, thermodynamic solubility studies were carried out on amorphous input material in selected solvent systems at 50° C. and 5° C. (Table 6).

[2] = Solubility screening by solvent addition technique (approximate solubility); assay type: physicochemical; settings: thermodynamic from solid, stirred at 50° C.
Experimental: Approximate solubility values for amorphous Compound I dihydrochloride in 24 solvent systems was estimated by a solvent addition technique (Table 5).
The following procedure was used for the study: • Approximately 20 mg of material was weighed out into 24×2 mL push-cap vials. • Each solvent/solvent mixture was added to the appropriate vial in 5 volume aliquots (100 μL) until either no more solvent could be added or until the material dissolved. • In between additions, the experiments were stirred at 50° C. • If 2000 μL of solvent was added without dissolution of the material, solubility was calculated to be below this point. • Experiments were stirred at 50° C. for 1.5-5 h and then cooled at 0.1° C./min to 5° C. and stirred at 5° C. for about 10 h. • Solids (residual and recrystallized) were isolated by centrifugation (0.22 μm nylon filter) and analyzed by XRPD. • Anti-solvent addition (ASA) at 20° C. was carried out on solutions, followed by temperature cycling between 50° C.-5° C. (1 h hold, 0.1° C./min cool, 0.25° C./min ramp) for 20 h. • ASA at 5° C. was carried out on experiments which remained solutions, which were then stirred at 5° C. for 3 h. • Solids were isolated by centrifugation (0.22 μm nylon filter) and analyzed by XRPD; experiments which remained solutions were evaporated at ambient temperature (about 20° C.) under vacuum. • All isolated material was dried under vacuum at about 30° C. for about 19-23 h then re-analyzed by XRPD.
For comparison purposes, the approximate solubility of Compound I dihydrochloride Form 1 was estimated in water, using the same procedure, in solubility screening Experiment 25.

CC[C@H]1CN2CCc3cc(OC)c(OC)cc3[C@@H]2C[C@@H]1C[C@H]1NCCc2cc(OC)c(OC)cc21 [Amorphous Compound I dihydrochloride]
solubility thermodynamic at 23 h ([1]; organic solvent or mixture, 2-propanol:heptane 70:30 v/v, 5° C.): < 10 mg/mL | solubility thermodynamic at 23 h ([1]; organic solvent or mixture, 2-propanol:heptane 70:30 v/v, 50° C.): ~20 mg/mL | solubility thermodynamic at 23 h ([1]; organic solvent or mixture, 2-propanol:heptane 90:10 v/v, 5° C.): 10 to 40 mg/mL | solubility thermodynamic at 23 h ([1]; organic solvent or mixture, 2-propanol:heptane 90:10 v/v, 50° C.): 40 to 115 mg/mL | solubility thermodynamic at 23 h ([1]; organic solvent or mixture, 2-propanol:water 95:5 v/v, 5° C.): 10 to 40 mg/mL | solubility thermodynamic at 23 h ([1]; organic solvent or mixture, 2-propanol:water 95:5 v/v, 50° C.): 40 to 115 mg/mL | solubility thermodynamic at 23 h ([1]; organic solvent or mixture, 2-propanol:water 99:1 v/v, 5° C.): 10 to 40 mg/mL | solubility thermodynamic at 23 h ([1]; organic solvent or mixture, 2-propanol:water 99:1 v/v, 50° C.): 40 to 115 mg/mL | solubility thermodynamic at 23 h ([1]; organic solvent or mixture, 2-propanol, 5° C.): 10 to 40 mg/mL | solubility thermodynamic at 23 h ([1]; organic solvent or mixture, 2-propanol, 50° C., experiment remained unsaturated): > 215 mg/mL | solubility thermodynamic at 23 h ([1]; organic solvent or mixture, acetone:water 60:40 v/v, 5° C., experiment remained unsaturated): > 125 mg/mL | solubility thermodynamic at 23 h ([1]; organic solvent or mixture, acetone:water 60:40 v/v, 50° C., experiment remained unsaturated): > 215 mg/mL | solubility thermodynamic at 23 h ([1]; organic solvent or mixture, acetone:water 70:30 v/v, 5° C., experiment remained unsaturated): > 125 mg/mL | solubility thermodynamic at 23 h ([1]; organic solvent or mixture, acetone:water 70:30 v/v, 50° C., experiment remained unsaturated): > 215 mg/mL | solubility thermodynamic at 23 h ([1]; organic solvent or mixture, acetone:water 90:10 v/v, 5° C.): 10 to 40 mg/mL | solubility thermodynamic at 23 h ([1]; organic solvent or mixture, acetone:water 90:10 v/v, 50° C.): 40 to 115 mg/mL | solubility thermodynamic at 23 h ([1]; organic solvent or mixture, ethanol:heptane 60:40 v/v, 5° C.): < 10 mg/mL | solubility thermodynamic at 23 h ([1]; organic solvent or mixture, ethanol:heptane 60:40 v/v, 50° C.): 40 to 115 mg/mL | solubility thermodynamic at 23 h ([1]; organic solvent or mixture, ethanol:heptane 80:20 v/v, 5° C.): 10 to 40 mg/mL | solubility thermodynamic at 23 h ([1]; organic solvent or mixture, ethanol:heptane 80:20 v/v, 50° C., experiment remained unsaturated): > 215 mg/mL | solubility thermodynamic at 23 h ([1]; organic solvent or mixture, ethanol, 5° C.): 10 to 40 mg/mL | solubility thermodynamic at 23 h ([1]; organic solvent or mixture, ethanol, 50° C., experiment remained unsaturated): > 215 mg/mL | solubility thermodynamic at 23 h ([1]; water, 5° C.): 65 mg/mL | solubility thermodynamic at 23 h ([1]; water, 50° C., experiment remained unsaturated): > 215 mg/mL | solubility ([2]; aqueous with cosolvent or surfactant or cyclodextrin, acetone:water 50:50 v/v): > 200 mg/mL | solubility ([2]; aqueous with cosolvent or surfactant or cyclodextrin, ethanol:water 25:75 v/v): > 200 mg/mL | solubility ([2]; aqueous with cosolvent or surfactant or cyclodextrin, methanol:water 50:50 v/v): > 200 mg/mL | solubility ([2]; organic solvent or mixture, 1-propanol): > 200 mg/mL | solubility ([2]; organic solvent or mixture, 2-methyl THF): < 10 mg/mL | solubility ([2]; organic solvent or mixture, 2-propanol): > 200 mg/mL | solubility ([2]; organic solvent or mixture, 2-propanol:water 95:5 v/v): > 200 mg/mL | solubility ([2]; organic solvent or mixture, N-methyl-2-pyrrolidone): > 200 mg/mL | solubility ([2]; organic solvent or mixture, THF): < 10 mg/mL | solubility ([2]; organic solvent or mixture, acetone): < 10 mg/mL | solubility ([2]; organic solvent or mixture, anisole): < 10 mg/mL | solubility ([2]; organic solvent or mixture, dimethylformamide): > 200 mg/mL | solubility ([2]; organic solvent or mixture, dimethylsulfoxide): > 200 mg/mL | solubility ([2]; organic solvent or mixture, ethanol): > 200 mg/mL | solubility ([2]; organic solvent or mixture, ethanol:water 90:10 v/v): > 200 mg/mL | solubility ([2]; organic solvent or mixture, ethyl acetate): < 10 mg/mL | solubility ([2]; organic solvent or mixture, heptane): < 10 mg/mL | solubility ([2]; organic solvent or mixture, isopropyl acetate): < 10 mg/mL | solubility ([2]; organic solvent or mixture, methanol): > 200 mg/mL | solubility ([2]; organic solvent or mixture, methylethyl ketone): < 10 mg/mL | solubility ([2]; organic solvent or mixture, methylisobutyl ketone): < 10 mg/mL | solubility ([2]; organic solvent or mixture, tBME): < 10 mg/mL | solubility ([2]; organic solvent or mixture, toluene): < 10 mg/mL | solubility ([2]; water): > 200 mg/mL
